Data taken from the supplement of paper PMC8633005.

Assays:
WM165 = assay: drug sensitivity score (DSS) (DSS (unitless, 0-50 scale)); higher = more sensitive (stronger viability inhibition); extreme values may be limits of the assay; conditions: 72 h; culture: 2D
In short: (§1)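 Viability was measured by CellTiter-Glo luminescence after 72 h at 37 °C in 384-well plates holding a 527-compound oncology library, with patient-derived melanoma cultures (1000–1500 cells per well) and melanoma cell lines grown in 2D. Every compound was tested at five concentrations spanning a 10,000-fold range. The drug sensitivity score, a modified area under the curve, came from dose-response curves fitted with in-house Breeze software.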

FM-MEL-6 [1] = assay: as above; conditions: 72 h; culture: 2D
In short: as §1

WM852 = assay: as above; conditions: 72 h; culture: 2D
In short: as §1

Bowes = assay: as above; conditions: 72 h; culture: 2D
In short: as §1

FM-MEL-3 [2] = assay: as above; conditions: 72 h; culture: 2D
In short: as §1

SK-MEL-2 = assay: as above; conditions: 72 h; culture: 2D
In short: as §1

FM-MEL-2 [3] = assay: as above; conditions: 72 h; culture: 2D
In short: as §1

SK-MEL-28 = assay: as above; conditions: 72 h; culture: 2D
In short: as §1

FM-MEL-6 [4] = conditions: 72 h
Description: (§2)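 Validation dose-response testing of selected drugs on NRAS-mutant melanoma patient-derived cells, run in 2D culture and in 3D spheroids (ultra-low attachment plates), in triplicate per concentration. Viability was read by CellTiter-Glo after 72 h. EC50 came from Breeze curve fitting, and DSS was calculated from the curve.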

FM-MEL-3 [5] = conditions: 72 h
Description: as §2

FM-MEL-2 [6] = conditions: 72 h
Description: as §2

FM-MEL-6 [7] = assay: drug sensitivity score (DSS) (DSS (unitless)); higher = more sensitive; conditions: 72 h
Description: as §2

FM-MEL-3 [8] = assay: as above; conditions: 72 h
Description: as §2

FM-MEL-2 [9] = assay: as above; conditions: 72 h
Description: as §2

Row | SMILES | drug sensitivity score (WM165) | drug sensitivity score (FM-MEL-6 [1]) | drug sensitivity score (WM852) | drug sensitivity score (Bowes) | drug sensitivity score (FM-MEL-3 [2]) | drug sensitivity score (SK-MEL-2) | drug sensitivity score (FM-MEL-2 [3]) | drug sensitivity score (SK-MEL-28) | EC50 (cell viability) (FM-MEL-6 [4]; culture: 2D) | EC50 (cell viability) (FM-MEL-6 [4]; culture: 3D spheroid) | EC50 (cell viability) (FM-MEL-3 [5]; culture: 2D) | EC50 (cell viability) (FM-MEL-3 [5]; culture: 3D spheroid) | EC50 (cell viability) (FM-MEL-2 [6]; culture: 2D) | EC50 (cell viability) (FM-MEL-2 [6]; culture: 3D spheroid) | drug sensitivity score (FM-MEL-6 [7]; culture: 2D) | drug sensitivity score (FM-MEL-6 [7]; culture: 3D spheroid) | drug sensitivity score (FM-MEL-3 [8]; culture: 2D) | drug sensitivity score (FM-MEL-3 [8]; culture: 3D spheroid) | drug sensitivity score (FM-MEL-2 [9]; culture: 2D) | drug sensitivity score (FM-MEL-2 [9]; culture: 3D spheroid)
1 | COc1cccc(OCCCN)c1-c1cc(Nc2cnc(C#N)cn2)n[nH]1 [Prexasertib] | 24.1 | 26.6 | 27.7 | 28.6 | 19.1 | 28.7 | 10.5 | 8.6 | 137 nM | 6570 nM | 52 nM | 48.7 nM | 851 nM | 2030 nM | 6.4 | 0.8 | 21.1 | 25.6 | 7.7 | 4.9
2 | Cn1cnc2c(F)c(Nc3ccc(Br)cc3Cl)c(C(=O)NOCCO)cc21 [Selumetinib] | 17.3 | 13 | 4.9 | 0 | 24.9 | 13.2 | 16.5 | 18.2 | 83.6 nM | 56.1 nM | 78.9 nM | 56.4 nM | 75.6 nM | 71 nM | 16.3 | 21.9 | 23.8 | 27.1 | 19.7 | 20.3
3 | CNc1ncc2cc(-c3cc(NC(=O)NCCC(C)(C)C)c(F)cc3C)c(C)nc2n1 | 25.4 | 14.4 | 10.2 | 7.4 | 25.4 | 15.2 | 19.9 | 20.3 | 187 nM | 97.3 nM | 83.3 nM | 64.9 nM | 59.3 nM | 59.8 nM | 11.3 | 16.9 | 24.5 | 26.6 | 20.6 | 20.8
4 | COc1cc(OC)c(/C=C/S(=O)(=O)Cc2ccc(OC)c(NCC(=O)O)c2)c(OC)c1 [Rigosertib] | 21.4 | 18.6 | 22.6 | 19.9 | 15.5 | 17 | 7.6 | 9.5 | 56.2 nM | 1540 nM | 42 nM | 39.2 nM | 44.2 nM | 110 nM | 8.6 | 1.3 | 13.2 | 16.9 | 10.8 | 10.5
5 | O=C(c1ccc(F)c(F)c1Nc1ccc(I)cc1F)N1CC(O)([C@@H]2CCCCN2)C1 [Cobimetinib] | 21.3 | 9.4 | 4.3 | 0.3 | 20.7 | 11.5 | 15.5 | 21.3 | 28.1 nM | 8.1 nM | 12.5 nM | 6.2 nM | 5.7 nM | 4 nM | 10.4 | 19.5 | 20.7 | 26.6 | 20.2 | 21.8
6 | COc1ncc(-c2ccc3nccc(-c4ccnnc4)c3c2)cc1NS(=O)(=O)c1ccc(F)cc1F [Omipalisib] | 15.5 | 14.7 | 13.8 | 16.9 | 17.9 | 9.5 | 15.3 | 16.3 | 5.5 nM | 4.4 nM | 7.3 nM | 5.2 nM | 5.5 nM | 4 nM | 14.9 | 19 | 24.1 | 27.3 | 16.9 | 17.5
7 | CC(=O)Nc1cccc(-n2c(=O)n(C3CC3)c(=O)c3c(Nc4ccc(I)cc4F)n(C)c(=O)c(C)c32)c1 [Trametinib] | 21.2 | 15.6 | 6.8 | 1.8 | 26.1 | 17.9 | 18.1 | 21.1 | 1.3 nM | 0.5 nM | 0.8 nM | 0.2 nM | 0.6 nM | 0.5 nM | 17.1 | 24 | 27.6 | 34.6 | 22.3 | 23.3
8 | C=CCn1c(=O)c2cnc(Nc3ccc(N4CCN(C)CC4)cc3)nc2n1-c1cccc(C(C)(C)O)n1 [AZD1775] | 13.1 | 12.5 | 14.5 | 15.2 | 12.8 | 11.3 | 7.6 | 4.3 | 1800 nM | > 10000 nM | 242 nM | 257 nM | 378 nM | 364 nM | 1.7 | 0 | 14 | 15.6 | 5.8 | 4.5
